Measured values reported in patent publication US11020395B2, “Cycloalkyl substituted triazole compounds as agonists of the APJ receptor” (AMGEN INC., priority 2016, dated 2021).

Legend:
heart failure rats = test: Cardiac function with APJ small molecule agonists in the presence of ACE inhibitor captopril in heart failure rats in vivo; parameters: species or system rat; details: captopril alone, acute settings
Text: The interaction between […] (ACE2) and Apelin biology is complicated. To investigate the interaction between the Apelin-APJ and ACE signalling pathways, we examined the improvement in cardiac function with APJ small molecule agonists in the presence of ACE inhibitor captopril in heart failure rats in vivo. […] However, in the presence of an APJ agonist, there was a shift in potency to the left with marked improvement in contractility and ejection fraction without changes in heart rate. These findings provide a new reference for the understanding of the regulation of ACE2 for the renin angiotensin aldosterone system (RAAS), independent of AT1R signaling and offer new potential drug targets for the treatment of diseases such as hypertension and heart failure. This work clearly establishes that combination of an agonist of the APJ receptor with an ARB such as losartan and/or with an ACE inhibitor such as captopril which may play an important role in providing greater efficacy in treating heart failure patients, for example in improving contractility and ejection fraction without changing the heart rate.

[1] = target: human APJ-AT1R double stable CHO cell line (Homo sapiens (Human), UniProt P35414); test: IP1 accumulation (TR-FRET) assay with AngII in human APJ-AT1R double stable CHO cell line; assay type: cell-based; details: in the presence of AngII and APJ small molecule agonists
Procedure: The function of the inositol phosphate accumulation (IP1) was measured by Time-resolved fluorescence resonance energy (TR-FRET) at 620 nm and 665 nm respectively.
The plate was sealed and incubated for 1 hour.

human APJ receptor = human APJ receptor (Homo sapiens (Human), UniProt P35414); test: [35S]GTPγS binding assay on membranes from CHO cells stably expressing human APJ receptor; assay type: biochemical; details: [35S]GTPγS SPA, read-out: Activity hAPJ SPA EC50 IP
In short: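 Membranes from CHO cells stably expressing FLAG-tagged human APJ were incubated with [35S]GTPγS in buffer with optimized GDP, MgCl2 and NaCl, 90 min at RT. EC50 values derived by non-linear regression, averaged over several independent experiments.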

Chain of human APJ receptor (P35414 whole entry): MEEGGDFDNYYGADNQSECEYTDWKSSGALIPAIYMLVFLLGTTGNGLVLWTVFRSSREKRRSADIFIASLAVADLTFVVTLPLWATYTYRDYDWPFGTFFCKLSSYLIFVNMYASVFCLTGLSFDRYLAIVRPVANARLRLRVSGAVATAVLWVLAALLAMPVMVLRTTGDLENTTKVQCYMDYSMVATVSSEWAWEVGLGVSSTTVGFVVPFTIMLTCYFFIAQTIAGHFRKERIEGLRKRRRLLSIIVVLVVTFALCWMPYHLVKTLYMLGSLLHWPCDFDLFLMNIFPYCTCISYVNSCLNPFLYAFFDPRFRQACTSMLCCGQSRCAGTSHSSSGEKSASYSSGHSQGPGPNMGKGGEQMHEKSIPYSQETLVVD
Chain of human APJ-AT1R double stable CHO cell line (P35414 whole entry): as above

Row | Compound | EC50 (human APJ receptor) | further results
1 | C[C@H](CS)C(=O)N1CCC[C@H]1C(=O)O [Captopril, captopril] |  | contractility or ejection fraction (heart failure rats): does not show a marked improvement
2 | CCCCc1nc(Cl)c(CO)n1Cc1ccc(-c2ccccc2-c2nn[nH]n2)cc1 [losartan] |  | effect on APJ agonist-induced positive cooperativity [1]: relieved this cooperativity
3 | (2S,3R)-3-(5-chloropyrimidin-2-yl)-N-(4-(2,6-dimethoxyphenyl)-5-((S)-spiro[2.2]pentan-1-yl)-4H-1,2,4-triazol-3-yl)butane-2-sulfonamide or (2S,3R)-3-(5-chloropyrimidin-2-yl)-N-(4-(2,6-dimethoxyphenyl)-5-((R)-spiro[2.2]pentan-1-yl)-4H-1,2,4-triazol-3-yl)butane-2-sulfonamide [Example 218.0] | 1.1 nM | 
4 | (2S,3R)-3-(5-chloropyrimidin-2-yl)-N-(4-(2,6-dimethoxyphenyl)-5-((S)-spiro[2.2]pentan-1-yl)-4H-1,2,4-triazol-3-yl)butane-2-sulfonamide or (2S,3R)-3-(5-chloropyrimidin-2-yl)-N-(4-(2,6-dimethoxyphenyl)-5-((R)-spiro[2.2]pentan-1-yl)-4H-1,2,4-triazol-3-yl)butane-2-sulfonamide [Example 219.0] | 29 nM | 
5 | (2S,3R)-3-(5-chloropyrimidin-2-yl)-N-(5-((R)-2,2-difluorocyclopropyl)-4-(2,6-dimethoxyphenyl)-4H-1,2,4-triazol-3-yl)butane-2-sulfonamide or (2S,3R)-3-(5-chloropyrimidin-2-yl)-N-(5-((S)-2,2-difluorocyclopropyl)-4-(2,6-dimethoxyphenyl)-4H-1,2,4-triazol-3-yl)butane-2-sulfonamide [Example 220.0] | 39 nM | 
6 | (2S,3R)-3-(5-chloropyrimidin-2-yl)-N-(5-((R)-2,2-difluorocyclopropyl)-4-(2,6-dimethoxyphenyl)-4H-1,2,4-triazol-3-yl)butane-2-sulfonamide or (2S,3R)-3-(5-chloropyrimidin-2-yl)-N-(5-((S)-2,2-difluorocyclopropyl)-4-(2,6-dimethoxyphenyl)-4H-1,2,4-triazol-3-yl)butane-2-sulfonamide [Example 221.0] | 18 nM | 
